From ChEMBL document CHEMBL1201862, “PubChem BioAssay data set” (2004)
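Briefly, cells in 96-well plates were exposed to five compound concentrations for 48 h, and endpoints were estimated by linear interpolation. The concentration for 50% growth inhibition is given as GI50.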 Active and inactive are the calls of the source. No stated cut-off is given here; in the data, active = GI50 up to about 1.1 µM and inactive = higher.

Columns and labels:
Assay in all cases: growth of human tumour cells (NCI), 48 h
NCI/ADR-RES = system: NCI/ADR-RES
COLO 205 = system: COLO 205
SF-268 = system: SF-268
786-0 = system: 786-0
SNB-75 = system: SNB-75
MDA-MB-435 = system: MDA-MB-435
HCT-15 = system: HCT-15
SK-MEL-5 = system: SK-MEL-5
T47D = system: T47D
MCF7 = system: MCF7
OVCAR-4 = system: OVCAR-4
HOP-62 = system: HOP-62
TK-10 = system: TK-10
K562 = system: K562
IGROV-1 = system: IGROV-1
NCI-H460 = system: NCI-H460
DU-145 = system: DU-145
LOX IMVI = system: LOX IMVI
MDA-N = system: MDA-N
MOLT-4 = system: MOLT-4
SF-295 = system: SF-295
OVCAR-3 = system: OVCAR-3
U-251 = system: U-251
HT-29 = system: HT-29
UACC-62 = system: UACC-62
EKVX = system: EKVX
ACHN = system: ACHN
KM12 = system: KM12
BT-549 = system: BT-549
PC-3 = system: PC-3
UACC-257 = system: UACC-257
Hs-578T = system: Hs-578T
SK-OV-3 = system: SK-OV-3
NCI-H226 = system: NCI-H226
A549 = system: A549
Malme-3M = system: Malme-3M
CAKI-1 = system: CAKI-1
HL-60 = system: HL-60
SW-620 = system: SW-620
NCI-H522 = system: NCI-H522
NCI-H23 = system: NCI-H23
M14 = system: M14
UO-31 = system: UO-31
HCT-116 = system: HCT-116
SNB-19 = system: SNB-19
OVCAR-5 = system: OVCAR-5
OVCAR-8 = system: OVCAR-8
RPMI-8226 = system: RPMI-8226
SN12C = system: SN12C
CCRF-CEM = system: CCRF-CEM
SK-MEL-28 = system: SK-MEL-28
HOP-92 = system: HOP-92
SR = system: SR
SK-MEL-2 = system: SK-MEL-2
RXF 393 = system: RXF 393
SF-539 = system: SF-539
HCC 2998 = system: HCC 2998

What does the source list for `CCOC(=O)c1c(SCC#N)n(-c2ccccc2)c(=S)n(-c2ccccc2)c1=O`?
GI50 (NCI/ADR-RES): 35.3 µM (inactive); GI50 (COLO 205): 61.7 µM (inactive); GI50 (SF-268): 55.8 µM (inactive); GI50 (786-0): 53.5 µM (inactive); GI50 (SNB-75): 25.8 µM (inactive); GI50 (MDA-MB-435): 38.7 µM (inactive); GI50 (HCT-15): 25.8 µM; GI50 (SK-MEL-5): 27 µM (inactive); GI50 (T47D): 44 µM (inactive); GI50 (MCF7): 37.8 µM (inactive); GI50 (OVCAR-4): 40.7 µM (inactive); GI50 (HOP-62): 88.1 µM (inactive); GI50 (TK-10): > 100 µM (inactive); GI50 (K562): 18.2 µM (inactive); GI50 (IGROV-1): 30.8 µM (inactive); GI50 (NCI-H460): 34.2 µM (inactive); GI50 (DU-145): > 100 µM (inactive); GI50 (LOX IMVI): 14.7 µM (inactive); GI50 (MDA-N): 82.8 µM (inactive); GI50 (MOLT-4): 9.73 µM (inactive); GI50 (SF-295): 32.1 µM (inactive); GI50 (OVCAR-3): 33.7 µM (inactive); GI50 (U-251): 33 µM (inactive); GI50 (HT-29): 41.2 µM (inactive); GI50 (UACC-62): 23.3 µM (inactive); GI50 (EKVX): 36.3 µM (inactive); GI50 (ACHN): 28.1 µM (inactive); GI50 (KM12): 47 µM (inactive); GI50 (BT-549): 36.1 µM (inactive); GI50 (PC-3): 18.8 µM (inactive); GI50 (UACC-257): 61.2 µM (inactive); GI50 (Hs-578T): 28.1 µM (inactive); GI50 (SK-OV-3): 35.9 µM (inactive); GI50 (NCI-H226): 38.4 µM (inactive); GI50 (A549): 39.4 µM (inactive); GI50 (Malme-3M): 39.2 µM (inactive); GI50 (CAKI-1): > 100 µM (inactive); GI50 (HL-60): 55.6 µM (inactive); GI50 (SW-620): 29.9 µM (inactive); GI50 (NCI-H522): 34.4 µM (inactive); GI50 (NCI-H23): 45.7 µM (inactive); GI50 (M14): > 100 µM (inactive); GI50 (UO-31): 37.5 µM (inactive); GI50 (HCT-116): 43.9 µM (inactive); GI50 (SNB-19): 37.8 µM (inactive); GI50 (OVCAR-5): > 100 µM (inactive); GI50 (OVCAR-8): 38.5 µM (inactive); GI50 (RPMI-8226): 35.5 µM (inactive); GI50 (SN12C): 32.4 µM (inactive); GI50 (CCRF-CEM): 13.5 µM (inactive); GI50 (SK-MEL-28): 57.9 µM (inactive); GI50 (HOP-92): 43.9 µM (inactive); GI50 (SR): 44 µM (inactive); GI50 (SK-MEL-2): 39.5 µM (inactive)

With `CC12CCC(C(=O)OC1=O)C(C)(C)O2` (configuration not stated) as the compound, how does the GI50 (NCI/ADR-RES) read?
Its GI50 is > 100 µM (inactive).

And the GI50 (COLO 205)?
Its GI50 is > 100 µM (inactive).

What about the GI50 (SF-268) of the same compound?
The GI50 was > 100 µM (inactive).

And the GI50 (SNB-75)?
Its GI50 is > 100 µM (inactive).

And the GI50 (MDA-MB-435)?
Its GI50 is > 100 µM (inactive).

What about the GI50 (SK-MEL-5) of the same compound?
The GI50 was > 100 µM (inactive).

And the GI50 (T47D)?
Its GI50 is > 100 µM (inactive).

What about the GI50 (MCF7) of the same compound?
Its GI50 is > 100 µM (inactive).

What about the GI50 (RXF 393) of the same compound?
Its GI50 is > 100 µM (inactive).

What about the GI50 (OVCAR-4) of the same compound?
Its GI50 is > 100 µM (inactive).

What about the GI50 (HOP-62) of the same compound?
The GI50 was > 100 µM (inactive).

What about the GI50 (TK-10) of the same compound?
Its GI50 is > 100 µM (inactive).

And the GI50 (K562)?
Its GI50 is > 100 µM (inactive).

What about the GI50 (IGROV-1) of the same compound?
The GI50 was > 100 µM (inactive).

What about the GI50 (NCI-H460) of the same compound?
The GI50 was > 100 µM (inactive).

And the GI50 (DU-145)?
Its GI50 is > 100 µM (inactive).

What about the GI50 (LOX IMVI) of the same compound?
Its GI50 is > 100 µM (inactive).

And the GI50 (MDA-N)?
The GI50 was > 100 µM (inactive).

What about the GI50 (MOLT-4) of the same compound?
The GI50 was > 100 µM (inactive).

What about the GI50 (SF-295) of the same compound?
Its GI50 is > 100 µM (inactive).

And the GI50 (OVCAR-3)?
The GI50 was > 100 µM (inactive).

And the GI50 (U-251)?
The GI50 was > 100 µM (inactive).

What about the GI50 (HT-29) of the same compound?
Its GI50 is > 100 µM (inactive).

What about the GI50 (UACC-62) of the same compound?
The GI50 was > 100 µM (inactive).

What about the GI50 (EKVX) of the same compound?
Its GI50 is > 100 µM (inactive).

And the GI50 (ACHN)?
The GI50 was > 100 µM (inactive).

And the GI50 (SF-539)?
Its GI50 is > 100 µM (inactive).

And the GI50 (KM12)?
The GI50 was > 100 µM (inactive).

What about the GI50 (BT-549) of the same compound?
The GI50 was > 100 µM (inactive).

And the GI50 (PC-3)?
Its GI50 is > 100 µM (inactive).

What about the GI50 (UACC-257) of the same compound?
Its GI50 is > 100 µM (inactive).

What about the GI50 (Hs-578T) of the same compound?
The GI50 was > 100 µM (inactive).

And the GI50 (SK-OV-3)?
Its GI50 is > 100 µM (inactive).

What about the GI50 (HCC 2998) of the same compound?
The GI50 was > 100 µM (inactive).

And the GI50 (NCI-H226)?
The GI50 was > 100 µM (inactive).

And the GI50 (A549)?
The GI50 was > 100 µM (inactive).

What about the GI50 (Malme-3M) of the same compound?
The GI50 was > 100 µM (inactive).

What about the GI50 (CAKI-1) of the same compound?
The GI50 was > 100 µM (inactive).

What about the GI50 (SW-620) of the same compound?
The GI50 was > 100 µM (inactive).

And the GI50 (NCI-H522)?
Its GI50 is > 100 µM (inactive).

What about the GI50 (NCI-H23) of the same compound?
Its GI50 is > 100 µM (inactive).

And the GI50 (M14)?
The GI50 was > 100 µM (inactive).

And the GI50 (UO-31)?
The GI50 was > 100 µM (inactive).

What about the GI50 (HCT-116) of the same compound?
The GI50 was > 100 µM (inactive).

And the GI50 (SNB-19)?
Its GI50 is > 100 µM (inactive).

And the GI50 (OVCAR-5)?
The GI50 was > 100 µM (inactive).

What about the GI50 (OVCAR-8) of the same compound?
The GI50 was > 100 µM (inactive).

What about the GI50 (RPMI-8226) of the same compound?
Its GI50 is > 100 µM (inactive).

And the GI50 (SN12C)?
The GI50 was > 100 µM (inactive).

And the GI50 (CCRF-CEM)?
Its GI50 is > 100 µM (inactive).

What about the GI50 (SK-MEL-28) of the same compound?
Its GI50 is > 100 µM (inactive).

And the GI50 (HOP-92)?
Its GI50 is > 100 µM (inactive).

What about the GI50 (SK-MEL-2) of the same compound?
The GI50 was > 100 µM (inactive).
